In brackets after ≈: the same amount, converted by molar mass. Several values for one entry are separate records, joined by “and”; a condition that tells them apart may be missing. Equal entries are not always repeated. Where two headings read alike, the source gives them in different places.
Tests used:
[1] = system: Propionibacterium acnes; assay: Anti-bacterial assay (growth inhibition, MIC/MBC by broth microdilution); assay type: cell-based; conditions: for activity against P. acnes (in words): at their maximum solubility; for Inhibition Rate (P. acnes growth): concentration 100 μg/mL
Description: The antibacterial assay was based mostly on the methods described by Tanaka et al. with slight modification. Propionibacterium acne (NBRC 107605) was used for the antibacterial assay. A single colony of the test strain was taken and 5 mL of Gifu anaerobic medium (GAM) broth (Nissui, Tokyo) was added to it. This culture was incubated at 37 °C for 30 h. It was then added to the bacterial suspension to prepare a bacterial concentration at 10^5 CFU/mL. The bacterial solution was used for the subsequent antibacterial assay. Each compound was dissolved in DMSO, and benzalkonium chloride (Wako) was used as a positive control. The plate was incubated at 37 °C for 30 h. Finally, bacterial growth was measured by a microplate reader at 630 nm. The MIC and MBC were evaluated by the standard broth microdilution method.

[2] = system: B16 melanoma cells; assay: Anti-melanogenesis assay (melanin content); assay type: cell-based, mouse
Description: (§1) This assay was performed as described by Arung et al.. The mouse melanoma cell line B16 was obtained from the Riken Bioresource Center Cell Bank (Tsukuba, Japan). The B16 melanoma cells were maintained in Eagle’s Minimal Essential Medium (EMEM, Nissui Chemical, Tokyo) supplemented with 10% (v/v) fetal bovine serum (FBS; Gibco, Carlsbad, CA, USA) and 0.09 mg/mL theophylline (Sigma-Aldrich, St. Louis, MO, USA). […] After 24 h, test samples were dissolved in DMSO (<0.2% per well) and sample solution were added to each well. Arbutin (Tokyo Kasei Kogyo, Tokyo) was used as a positive control. The cells were incubated for an additional 48 h, and then the medium was replaced with fresh medium containing each sample again. After 24 h, the melanin content and the cell viability were measured using a microplate reader (BioTek-ELX800, BioTek Instruments, Winooski, VT, USA) at 405 nm and 570 nm, respectively. Cell viability was measured using the MTT (3-(4,5-dimethylthiazol-2-yl)-2,5-diphenyltetrazolium bromide) method.

[3] = system: NHDF cells; assay: Skin type I collagen synthesis promoting assay (ELISA, with MTT); assay type: cell-based, human; conditions: fold of control
Description: The assay for measuring the promotion of skin collagen synthesis was described by Kishikawa et al.. Adult NHDF cells (Lonza, Tokyo) were routinely maintained in 10% FBS and 1% antibiotic-antimycotic (Invitrogen) in Dulbecco’s modified Eagle’s medium (DMEM, Wako). After growing to confluence, cells at a density of 5 × 10^3 cells/well were seeded on 96-well plates for 24 h before the treatment. The medium was replaced with a mixture of 1 μL of sample solution (DMSO < 0.5% per well) and 99 μL of DMEM supplemented with 0.5% FBS. After 72 h of cultivation, the amount of collagen in the medium was measured using a human type I collagen enzyme-linked immunosorbent assay (ELISA) kit (ACEL, Kanagawa, Japan). The amount of collagen production was calculated using a standard curve prepared by measurement by the same ELISA. The cells remaining in the 96-well plate were subjected to an MTT assay. Ascorbic acid (100 μM, Wako) was used as a positive control.

[4] = system: RBL-2H3 cells; assay: Cell viability of RBL-2H3 cells (parallel MTT); assay type: cell-based, rat; conditions: 25 μg/ml, RBL-2H3 cells
Description: (§2) The anti-allergy assay was based mostly on the methods described by Zhu et al. and Yun et al. with slight modification. Rat basophilic leukemia (RBL-2H3) cells were obtained from the Riken Bio-resource Center Cell Bank (Tsukuba, Japan). RBL-2H3 cells were incubated in EMEM medium containing 10% FBS and 1% antibiotics–antimycotics at 37 °C. The cells were seeded on a 96-well plate (2 × 10^5 cells/well). After 24 h of incubation, the medium was supplemented with 0.5 μg/mL anti-DNP (dinitrophenol) mouse immunoglobulin E (IgE) (Sigma-Aldrich). After an additional 24 h of incubation, the medium was replaced with 100 μL of Tyrode buffer. The sample dissolved in DMSO (<0.5% per well) was added, and the cell plate was incubated again for 30 min, then replaced with 100 μL of tyrode buffer containing 50 μg/mL DNP-bovine serum albumin (BSA) (Invitrogen, Carlsbad, CA, USA). After 1 h of incubation, 50 μL of the supernatant was collected from each well and mixed with 50 μL of substrate solution (p-nitrophenyl-N-acetyl-β-glucosaminide, 2 mM; Sigma-Aldrich) in a new 96-well plate. The mixture was incubated at room temperature on a shaker for 3 h. Finally, 100 μL of stop solution was added, and the absorbance was read at 405 nm. A parallel MTT experiment was performed to measure the cell viability. The MTT experiment was done exactly as described.

[5] = system: B16 melanoma cells; assay: Cell viability of B16 melanoma cells (MTT); conditions: for Inhibition rate (100% − cell viability): B16 cells; for CC50 cell viability / CC50: B16 melanoma cells, MTT; for CC50: read-out: CC50 (cell viability)
Description: as §1

[6] = Cell viability of RBL-2H3 cells (parallel MTT); assay type: cell-based, rat; conditions: rat
Description: as §2

[7] = in vitro; conditions: mouse
Description: as §1

[8] = system: RBL-2H3 cells; assay: β-hexosaminidase release from IgE-stimulated RBL-2H3 mast cells; assay type: cell-based, rat; conditions: Rattus norvegicus, RBL-2H3
Description: as §2

[9] = B16 melanoma cells, read-out: IC50 (melanin synthesis)
[10] = Mus musculus, B16, read-out: Inhibition rate (100% − melanin synthesis)
[11] = Mus musculus, B16 melanoma cells, read-out: IC50 melanin
[12] = Mus musculus, B16 melanoma cells, read-out: IC50 (melanin synthesis)

Compound	activity against P. acnes (in words) [1]	Inhibition Rate (P. acnes growth) [1] [%]	Inhibition rate (100% − melanin synthesis) ([2]; 1 μg/ml, B16 cells) [%]	Inhibition rate (100% − melanin synthesis) ([2]; 2.5 μg/ml, B16 cells) [%]	Inhibition rate (100% − melanin synthesis) ([2]; 5 μg/ml, B16 cells) [%]	Inhibition rate (100% − melanin synthesis) ([2]; 10 μg/ml, B16 cells) [%]	IC50 melanin ([2]; B16 melanoma cells) [µg/mL]	IC50 [2, 9] [µM]	CP/CV value (collagen production %/cell viability %) ([3]; 5 μg/mL)	Cell viability [4] [%]	Inhibition rate (100% − cell viability) ([5]; 1 μg/ml) [%]	Inhibition rate (100% − cell viability) ([5]; 2.5 μg/ml) [%]	Inhibition rate (100% − cell viability) ([5]; 5 μg/ml) [%]	Inhibition rate (100% − cell viability) ([5]; 10 μg/ml) [%]	Inhibition rate (100% − cell viability) ([5]; 20 μg/ml) [%]	CC50 cell viability [5] [µg/mL]	CC50 [5] [µM]	IC50 [2, 11] [µg/mL]	CC50 at 72 h [7]	IC50 [2, 12] [µM]	also measured
C[C@@H]1CC[C@]2(C(=O)O)CC[C@]3(C)C(=CC[C@@H]4[C@@]5(C)C[C@@H](O)[C@H](O)C(C)(C)[C@@H]5CC[C@]43C)[C@@H]2[C@]1(C)O [Compound 11, tormentic acid]	active	102.8 ± 2.1	0.0± 6.1	11.3 ± 3.4	34.8 ± 4.5	51.3 ± 0.9	9.0 (≈ 18.4 µM)	18.5	1.3	62.6 ± 1.1	12.0 ± 12.8	13.7 ± 10.7	8.7 ± 12.1	52.4 ± 8.6	85.8 ± 1.6	11.4 (≈ 23.3 µM)	23.3				MBC ([1]; P. acnes, broth microdilution): 200 µg/mL (≈ 409 µM); MIC ([1]; P. acnes, broth microdilution): 100 µg/mL (≈ 205 µM); Inhibition rate (100% − melanin synthesis) ([2]; 20 μg/ml, B16 cells): 73.4 ± 8.0%
CC1CCC2(C(=O)O)CCC3(C)C(=CCC4C5(C)C(CO)=CC(C)(C)C5CCC43C)C2C1(C)O (stereo not shown) [Compound 16, hyptadienic acid]	active										3.7 ± 3.8	14.7 ± 4.2	28.9 ± 3.2	60.3 ± 6.5				10.1	7.8 µg/mL and 16.5 µM		MBC ([1]; Cutibacterium acnes): 200 µg/mL (≈ 425 µM); MIC ([1]; Cutibacterium acnes): 100 µg/mL (≈ 212 µM); inhibition at 100 µg/mL ([1]; Cutibacterium acnes, read-out: Inhibition Rate (P. acnes growth)): 104 ± 3.1%; S.I (selectivity index, CC50 value/IC50 value) ([2]; B16 melanoma cells): 0.8; IC50 ([2]; Mus musculus, B16, read-out: IC50 (melanin synthesis)): 21.6 µM; inhibition at 1 µg/mL [2, 10]: 0.1 ± 4.5%; inhibition at 2.5 µg/mL [2, 10]: 1.9 ± 3.4%; inhibition at 5 µg/mL [2, 10]: 13.4 ± 5.5%; inhibition at 10 µg/mL [2, 10]: 51.8 ± 5%; viability at 25 μg/ml [6]: 99.9 ± 2.3%
C[C@@H]1CC[C@]2(C(=O)O)CC[C@]3(C)C(=CC[C@@H]4[C@@]5(C)CCC(=O)C(C)(C)[C@@H]5[C@H](O)C[C@]43C)[C@@H]2[C@]1(C)O [Compound 14, 6β,19-dihydroxyurs-12-en-3-oxo-28-oic acid]	active	87.6 ± 7.4	6.9 ± 1.8	15.8 ± 1.8	39.5 ± 3.1	67.3 ± 1.4	7.2 (≈ 14.8 µM)	14.8	1.4	66.8 ±11.1	2.5 ± 8.3	1.2 ± 9.7	44.1 ± 0.4	69.1 ± 10.0		5.3 (≈ 10.9 µM)	10.9				CP/CV value (collagen production %/cell viability %) ([3]; 1 μg/mL): 1.2; CP/CV value (collagen production %/cell viability %) ([3]; 10 μg/mL): 1.1
O=c1c(O)c(-c2ccc(O)c(O)c2)oc2cc(O)cc(O)c12 [Quercetin, reference compound]																					inhibition at 82 µM ([8]; 82 μM, positive control, read-out: inhibition rate of β-hexosaminidase release): 72.5%
OC[C@H]1O[C@@H](Oc2ccc(O)cc2)[C@H](O)[C@@H](O)[C@@H]1O [Arbutin, reference compound]																			1.82 mM	976	
C[C@H]1[C@H](C)CC[C@]2(CO)CC[C@]3(C)C(=CC[C@@H]4[C@@]5(C)CC[C@H](O)C(C)(C)[C@@H]5CC[C@]43C)[C@H]12 [Compound 3, Uvaol]													4.0 ± 7.6	10.8 ± 6.8	6.5± 7.4			> 20		> 45.2	inhibition at 50 µg/mL ([1]; Cutibacterium acnes, concentration 50 μg/mL, read-out: Inhibition Rate (P. acnes growth)): < 0%; inhibition at 25 µg/mL ([8]; 25 μg/mL, read-out: Inhibition Rate (β-hexosaminidase release)): 29.9 ± 3.3%; inhibition at 5 µg/mL ([2]; Mus musculus, 5 μg/ml, B16 cells, read-out: Inhibition rate (100% − melanin synthesis)): 0%; inhibition at 10 µg/mL ([2]; Mus musculus, 10 μg/ml, B16 cells, read-out: Inhibition rate (100% − melanin synthesis)): 14.2 ± 2.6%; inhibition at 20 µg/mL ([2]; Mus musculus, 20 μg/ml, B16 cells, read-out: Inhibition rate (100% − melanin synthesis)): 14.6 ± 4.6%; viability at 25 μg/ml ([6]; 25 μg/ml, RBL-2H3 cells, read-out: Cell viability): 110 ± 10.2%; CC50 at 72 h ([7]; B16 melanoma cells): > 0.0452 mM
